Experimental data from patent US20240059689A1, “PURINE DERIVATIVES AS ANTICANCER AGENTS” (Tango Therapeutics, Inc., priority 2021, published 2024).

Legend:
[1] = tested on: monoubiquitinated PCNA; assay: AlphaLISA assay measuring monoubiquitinated PCNA in MDA-MB-436; format: cell-based; conditions: Homo sapiens, MDA-MB-436, monoubiquitinated PCNA, read-out: Alpha Lisa IC50
From the text: Table 1 also indicates IC50 values for exemplary compounds in an AlphaLISA assay measuring monoubiquitinated PCNA in a BRCA1 mutant cell line (MDA-MB-436; column 7).

[2] = molecular target: USP1-UAF1 (Homo sapiens, UniProt O94782); assay: Ubiquitin Rhodamine assay of USP1-UAF1 activity; format: biochemical
Protocol: Certain compounds of the disclosure were assessed for USP1-UAF1 activity in a Ubiquitin Rhodamine assay as described in Biology Example 1.

[3] = tested on: HCC1954; assay: Viability assay, BRCA1 WT cell line HCC1954; format: cell-based; conditions: Homo sapiens, HCC1954, viability, read-out: HCC1954 rel IC50
From the text: (§1) Table 1 also indicates IC50 values in a viability assay for a non-isogenic pair of BRCA1 mutant (column 5-MDA-MB-436) and BRCA1 WT (column 6—HCC1954) cell lines. These values indicate the effect of treatment with compound on cell survival.

[4] = tested on: MDA-MB-436; assay: Viability assay, BRCA1 mutant cell line MDA-MB-436; format: cell-based; conditions: Homo sapiens, MDA-MB-436, viability, BRCA1 mutant MDA-MB-436; read-out: MDA-MB-436 rel IC50
From the text: as §1

Sequence of USP1-UAF1 (O94782 whole entry): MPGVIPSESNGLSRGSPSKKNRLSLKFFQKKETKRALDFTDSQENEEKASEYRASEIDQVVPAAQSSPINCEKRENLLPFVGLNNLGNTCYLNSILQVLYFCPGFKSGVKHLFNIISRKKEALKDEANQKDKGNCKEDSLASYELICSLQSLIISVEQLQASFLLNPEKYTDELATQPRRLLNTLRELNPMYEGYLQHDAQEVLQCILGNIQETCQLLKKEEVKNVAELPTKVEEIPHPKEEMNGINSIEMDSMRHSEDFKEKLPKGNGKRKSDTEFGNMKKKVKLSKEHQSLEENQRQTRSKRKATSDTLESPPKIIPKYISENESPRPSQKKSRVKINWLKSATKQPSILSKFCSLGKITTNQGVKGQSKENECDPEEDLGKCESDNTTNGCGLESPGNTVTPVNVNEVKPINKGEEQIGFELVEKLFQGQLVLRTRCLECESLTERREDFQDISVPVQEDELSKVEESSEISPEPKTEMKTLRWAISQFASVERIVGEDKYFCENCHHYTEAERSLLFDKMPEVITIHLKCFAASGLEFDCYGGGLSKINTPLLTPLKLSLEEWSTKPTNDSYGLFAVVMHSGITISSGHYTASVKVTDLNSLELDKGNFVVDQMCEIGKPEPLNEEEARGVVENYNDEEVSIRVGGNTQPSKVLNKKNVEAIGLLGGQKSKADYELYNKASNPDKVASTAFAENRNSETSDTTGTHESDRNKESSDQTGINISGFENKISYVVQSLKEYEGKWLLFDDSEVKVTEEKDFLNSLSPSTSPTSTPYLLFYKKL
Sequence of USP1-UAF1 (Q8TAF3 whole entry partner): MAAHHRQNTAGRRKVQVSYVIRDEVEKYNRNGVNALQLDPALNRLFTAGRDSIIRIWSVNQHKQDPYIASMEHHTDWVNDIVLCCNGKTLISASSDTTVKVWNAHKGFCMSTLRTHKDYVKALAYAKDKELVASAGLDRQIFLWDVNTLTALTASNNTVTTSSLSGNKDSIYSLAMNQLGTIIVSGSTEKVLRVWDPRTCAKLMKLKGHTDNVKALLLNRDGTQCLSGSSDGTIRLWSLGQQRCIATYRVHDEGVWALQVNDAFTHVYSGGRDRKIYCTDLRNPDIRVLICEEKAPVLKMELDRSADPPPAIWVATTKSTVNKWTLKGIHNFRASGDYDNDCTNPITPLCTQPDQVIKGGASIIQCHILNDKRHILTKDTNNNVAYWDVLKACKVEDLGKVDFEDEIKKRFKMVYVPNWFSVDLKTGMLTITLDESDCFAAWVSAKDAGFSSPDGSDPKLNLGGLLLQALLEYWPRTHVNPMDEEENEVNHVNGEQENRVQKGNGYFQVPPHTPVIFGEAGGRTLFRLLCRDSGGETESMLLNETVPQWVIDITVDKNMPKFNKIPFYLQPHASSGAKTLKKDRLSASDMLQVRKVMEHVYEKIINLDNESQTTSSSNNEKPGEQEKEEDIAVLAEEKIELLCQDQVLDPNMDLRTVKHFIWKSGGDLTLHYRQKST

Compound	IC50 [1]	IC50 [2]	IC50 [3]	IC50 [4]
C=C(C)c1ccccc1-c1ncc2c(n1)n(Cc1ccc(-c3nc(C(F)(F)F)cn3C)cc1)c(=N)n2C [Example B-4, 7-methyl-9-(4-(1-methyl-4-(trifluoromethyl)-1H-imidazol-2-yl)benzyl)-2-(2-(prop-1-en-2-yl)phenyl)-7,9-dihydro-8H-purin-8-imine]	< 100 nM	< 30 nM	≥ 10000 nM	< 100 nM
COc1ncnc(C2CC2)c1-c1ncc2c(n1)n(Cc1ccc(-n3nc(C(F)(F)F)cc3OC)cc1)c(=N)n2CC(F)(F)F [Example T-117, 2-(4-cyclopropyl-6-methoxy-pyrimidin-5-yl)-9-[[4-[5-methoxy-3-(trifluoromethyl)pyrazol-1-yl]phenyl]methyl]-7-(2,2,2-trifluoroethyl)purin-8-imine]	< 100 nM	30 to 100 nM	≥ 10000 nM	< 100 nM
CC(C)c1ccccc1-c1ncc2c(n1)n(Cc1ccc(-c3nc(C(F)(F)F)cs3)cc1)c(=N)n2C [Example A-25, 2-(2-isopropylphenyl)-7-methyl-9-(4-(4-(trifluoromethyl)thiazol-2-yl)benzyl)-7,9-dihydro-8H-purin-8-imine]	250 to 10000 nM	30 to 100 nM	250 to 10000 nM	250 to 10000 nM
CCOc1cc(C(F)(F)F)nn1-c1ccc(Cn2c(=N)n(CC(F)(F)F)c3cnc(-c4c(OC)ncnc4C4CC4)nc32)cc1 [Example T-114]	< 100 nM	30 to 100 nM	≥ 10000 nM	< 100 nM
Cn1cc(C(F)(F)F)nc1-c1ccc(Cn2c(=N)n(CC(F)F)c3cnc(-c4ccccc4C(F)(F)F)nc32)cc1 [Example T-049]	250 to 10000 nM	30 to 100 nM	≥ 10000 nM	100 to 250 nM
CC(C)c1c(F)cccc1-c1ncc2c(n1)n(Cc1ccc(-c3nc(C(F)(F)F)cn3C)cc1)c(=N)n2C [Example B-9, 2-(3-fluoro-2-isopropylphenyl)-7-methyl-9-(4-(1-methyl-4-(trifluoromethyl)-1H-imidazol-2-yl)benzyl)-7,9-dihydro-8H-purin-8-imine]	< 100 nM	< 30 nM	250 to 10000 nM	< 100 nM
CC(C)c1ccccc1-c1ncc2c(n1)n(Cc1ccc(-c3nc(C(F)(F)F)cn3C)cc1)c(=N)n2C [Example B-2, 2-(2-isopropylphenyl)-7-methyl-9-(4-(1-methyl-4-(trifluoromethyl)-1H-imidazol-2-yl)benzyl)-7H-purin-8(9H)-imine]	< 100 nM	< 30 nM	≥ 10000 nM	< 100 nM
COc1ncnc(C2CC2)c1-c1ncc2c(n1)n([C@H](C)c1ccc(-n3nc(C(F)(F)F)cc3OC)cc1)c(=N)n2CC(F)(F)F [Example T-109, 2-(4-cyclopropyl-6-methoxy-pyrimidin-5-yl)-9-[(1R)-1-[4-[5-methoxy-3-(trifluoromethyl)pyrazol-1-yl]phenyl]ethyl]-7-(2,2,2-trifluoroethyl)purin-8-imine]	< 100 nM	< 30 nM	≥ 10000 nM	< 100 nM
COc1ncnc(C2CC2)c1-c1ncc2c(n1)n(Cc1ccc(-n3nc(C(F)F)cc3OC)cc1)c(=N)n2CC(F)(F)F [Example T-100, 2-(4-cyclopropyl-6-methoxy-pyrimidin-5-yl)-9-[[4-[3-(difluoromethyl)-5-methoxy-pyrazol-1-yl]phenyl]methyl]-7-(2,2,2-trifluoroethyl)purin-8-imine]	100 to 250 nM	100 to 10000 nM	≥ 10000 nM	100 to 250 nM
COc1ncnc(C2CC2)c1-c1ncc2c(n1)n(Cc1ccc(-c3nc(C(F)(F)F)cn3C)cc1)c(=N)n2CC(F)(F)F [Example T-095, 2-(4-cyclopropyl-6-methoxy-pyrimidin-5-yl)-9-[[4-[1-methyl-4-(trifluoromethyl)imidazol-2-yl]phenyl]methyl]-7-(2,2,2-trifluoroethyl)purin-8-imine]	< 100 nM	30 to 100 nM	≥ 10000 nM	< 100 nM
CC(C)c1cc(C#N)ccc1-c1ncc2c(n1)n(Cc1ccc(-c3nc(C(F)(F)F)cn3C)cc1)c(=N)n2C [Example T-071, 4-[8-imino-7-methyl-9-[[4-[1-methyl-4-(trifluoromethyl)imidazol-2-yl]phenyl]methyl]purin-2-yl]-3-isopropyl-benzonitrile]	< 100 nM	30 to 100 nM	250 to 10000 nM	100 to 250 nM
Cn1cc(C(F)(F)F)nc1-c1ccc(Cn2c(=N)n(C)c3cnc(-c4ccc(F)cc4OC(F)F)nc32)cc1 [Example T-001, 2-[2-(difluoromethoxy)-4-fluoro-phenyl]-7-methyl-9-[[4-[1-methyl-4-(trifluoromethyl)imidazol-2-yl]phenyl]methyl]purin-8-imine]	250 to 10000 nM	30 to 100 nM	250 to 10000 nM	250 to 10000 nM
CCn1cc(C(F)(F)F)nc1-c1ccc(Cn2c(=N)n(C)c3cnc(-c4cccnc4OC)nc32)cc1 [Example T-057]	250 to 10000 nM	100 to 10000 nM	≥ 10000 nM	250 to 10000 nM
Cc1cc(-c2nc(C(F)(F)F)cn2C)ccc1Cn1c(=N)n(C)c2cnc(-c3ccccc3C(C)C)nc21 [Example T-040]	< 100 nM	30 to 100 nM	≥ 10000 nM	< 100 nM
C=C(C)c1c(F)cccc1-c1nc(C)c2c(n1)n(Cc1ccc(-c3nc(Cl)cn3C)cc1)c(=N)n2C [Example A-30, 9-(4-(4-chloro-1-methyl-1H-imidazol-2-yl)benzyl)-2-(3-fluoro-2-(prop-1-en-2-yl)phenyl)-6,7-dimethyl-7,9-dihydro-8H-purin-8-imine]	< 100 nM	< 30 nM	250 to 10000 nM	< 100 nM
COc1ncnc(C2CC2)c1-c1ncc2c(n1)n([C@H](C)c1ccc(-c3nc(C(F)(F)F)cn3C)cc1)c(=N)n2C [Example T-131, 2-(4-cyclopropyl-6-methoxy-pyrimidin-5-yl)-7-methyl-9-[(1R)-1-[4-[1-methyl-4-(trifluoromethyl)imidazol-2-yl]phenyl]ethyl]purin-8-imine]	< 100 nM	30 to 100 nM	≥ 10000 nM	< 100 nM
COc1cc(C(F)(F)F)nn1-c1ccc(Cn2c(=N)n(C)c3cnc(-c4ccccc4C(F)(F)F)nc32)cc1 [Example T-004]	100 to 250 nM	30 to 100 nM	250 to 10000 nM	250 to 10000 nM
CC(C)c1ccccc1-c1nc(-c2ccccc2C(C)C)c2c(n1)n(Cc1ccc(-c3nc(C(F)(F)F)cn3C)cc1)c(=N)n2C (single isomer, unassigned) [Example A-22b, 2,6-bis(2-isopropylphenyl)-7-methyl-9-(4-(1-methyl-4-(trifluoromethyl)-1H-imidazol-2-yl)benzyl)-7,9-dihydro-8H-purin-8-imine]	250 to 10000 nM	30 to 100 nM	250 to 10000 nM	250 to 10000 nM
Cn1cc(C(F)(F)F)nc1-c1ccc(Cn2c(=N)n(C)c3cnc(-c4ccccc4OC(F)F)nc32)cc1 [Example T-021, 2-[2-(difluoromethoxy)phenyl]-7-methyl-9-[[4-[1-methyl-4-(trifluoromethyl)imidazol-2-yl]phenyl]methyl]purin-8-imine]	< 100 nM	30 to 100 nM	≥ 10000 nM	100 to 250 nM
CCOc1ncnc(C2CC2)c1-c1ncc2c(n1)n(Cc1ccc(-c3nc(C(F)(F)F)cn3C)cc1)c(=N)n2CC(F)(F)F [Example T-119, 2-(4-cyclopropyl-6-ethoxy-pyrimidin-5-yl)-9-[[4-[1-methyl-4-(trifluoromethyl)imidazol-2-yl]phenyl]methyl]-7-(2,2,2-trifluoroethyl)purin-8-imine]	100 to 250 nM	100 to 10000 nM	≥ 10000 nM	100 to 250 nM
COc1ncccc1-c1ncc2c(n1)n(Cc1ccc(-c3nc(C(F)(F)F)cn3CCF)cc1)c(=N)n2C [Example T-093]	250 to 10000 nM	100 to 10000 nM	≥ 10000 nM	250 to 10000 nM
COc1ncnc(C2CC2)c1-c1ncc2c(n1)n(Cc1cc(F)c(-n3nc(C(F)(F)F)cc3OC)c(F)c1)c(=N)n2CC(F)(F)F [Example T-127]	< 100 nM	30 to 100 nM	≥ 10000 nM	< 100 nM
Cn1cc(C(F)(F)F)nc1-c1ccc(Cn2c(=N)n(CC(F)(F)F)c3cnc(-c4c(OC(F)(F)F)ccnc4C4CC4)nc32)cc1 [Example T-112, 2-[2-cyclopropyl-4-(trifluoromethoxy)-3-pyridyl]-9-[[4-[1-methyl-4-(trifluoromethyl)imidazol-2-yl]phenyl]methyl]-7-(2,2,2-trifluoroethyl)purin-8-imine]	100 to 250 nM	30 to 100 nM	≥ 10000 nM	< 100 nM
CC(C)c1ccccc1-c1nc(C(F)(F)F)c2c(n1)n(Cc1ccc(-c3nc(C(F)(F)F)cn3C)cc1)c(=N)n2C [Example T-084]	100 to 250 nM	< 30 nM	250 to 10000 nM	100 to 250 nM
COc1nc(C#N)ccc1-c1ncc2c(n1)n(Cc1ccc(-c3nc(C(F)(F)F)cn3C)cc1)c(=N)n2C [Example T-085]	250 to 10000 nM	100 to 10000 nM	250 to 10000 nM	250 to 10000 nM
COc1ncnc(C2CC2)c1-c1ncc2c(n1)n(Cc1ccc(-c3nc(C(F)(F)F)oc3C)cc1)c(=N)n2CC(F)(F)F [Example T-104, 2-(4-cyclopropyl-6-methoxy-pyrimidin-5-yl)-9-[[4-[5-methyl-2-(trifluoromethyl)oxazol-4-yl]phenyl]methyl]-7-(2,2,2-trifluoroethyl)purin-8-imine]	250 to 10000 nM	100 to 10000 nM	≥ 10000 nM	100 to 250 nM
